Laboratory results as given in US8076487B2, “Pyridone derivative and herbicide” (Kumiai Chemical Industry Co., Ltd., priority 2006, dated 2011).

Assays:
Assay type in all cases: in vivo
[1] = tested on: Japanese bulrush (Scirpus juncoides Roxb.); experiment: Test Example 1: herbicidal effect by soil application to paddy field; details: paddy field soil application; active ingredient 1,000 g per 1 hectare; wettable powder added dropwise to water surface the day after sowing; examined on the 21st day after application
Summary of the method: (§1)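 Plants were sown in flooded (3 cm) paddy soil and evaluated for herbicidal effect 21 days after soil application in a greenhouse.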

[2] = tested on: early watergrass (Echinochloa oryzicola Vasing); experiment: as above; details: paddy field soil application; active ingredient 1,000 g per 1 hectare; wettable powder added dropwise to water surface the day after sowing; examined on the 21st day after application
Summary of the method: as §1

[3] = tested on: heartshape false pickerelweed (Monochoria vaginalis (Burm.f.) C.Presl); experiment: as above; details: paddy field soil application; active ingredient 1,000 g per 1 hectare; wettable powder added dropwise to water surface the day after sowing; examined on the 21st day after application
Summary of the method: as §1

[4] = tested on: barnyardgrass (Echinochloa crus-galli (L.) P. Beauv. var. crus-galli); experiment: Test Example 2: herbicidal effect by soil application to upland field; details: soil surface spray, upland field soil, 1,000 g active ingredient per hectare, 21st day after application
Summary of the method: (§2)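 After sowing and covering, the soil received an even aqueous spray of wettable powder at a rate of 1,000 g active ingredient/ha (1,000 L/ha). Ratings of herbicidal effect followed a standard scale 21 days post-treatment, with plants held in a greenhouse.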

[5] = tested on: green foxtail (Setaria viridis (L.) P. Beauv.); experiment: as above; details: soil surface spray, upland field soil, 1,000 g active ingredient per hectare, 21st day after application
Summary of the method: as §2

[6] = tested on: slender amaranth (Amaranthus viridis L.); experiment: as above; details: soil surface spray, upland field soil, 1,000 g active ingredient per hectare, 21st day after application
Summary of the method: as §2

[7] = tested on: velvetleaf (Abutilon theophrasti medicus); experiment: as above; details: soil surface spray, upland field soil, 1,000 g active ingredient per hectare, 21st day after application
Summary of the method: as §2

[8] = tested on: barnyardgrass (Echinochloa crus-galli (L.) P. Beauv. var. crus-galli); experiment: Test Example 3: herbicidal effect by application to upland field (foliage treatment); details: foliage treatment, plants grown two weeks, 1,000 g active ingredient per hectare, 14th day after application
Summary of the method: (§3)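 Post-emergence spray at 1,000 g AI/ha of wettable powder in water (1,000 L/ha), onto seedlings grown 2 weeks in greenhouse field-soil pots. Graded day 14.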

[9] = tested on: green foxtail (Setaria viridis (L.) P. Beauv.); experiment: as above; details: foliage treatment, plants grown two weeks, 1,000 g active ingredient per hectare, 14th day after application
Summary of the method: as §3

[10] = tested on: slender amaranth (Amaranthus viridis L.); experiment: as above; details: foliage treatment, plants grown two weeks, 1,000 g active ingredient per hectare, 14th day after application
Summary of the method: as §3

[11] = tested on: velvetleaf (Abutilon theophrasti medicus); experiment: as above; details: foliage treatment, plants grown two weeks, 1,000 g active ingredient per hectare, 14th day after application
Summary of the method: as §3

| SMILES | herbicidal effect, Scirpus juncoides Roxb. [1] | herbicidal effect, Echinochloa oryzicola Vasing [2] | herbicidal effect, Monochoria vaginalis (Burm. f.) C. Presl [3] | herbicidal effect (index), Barnyardgrass [4] | herbicidal effect (index), Green Foxtail [5] | herbicidal effect (index), Slender Amaranth [6] | herbicidal effect (index), Velvetleaf [7] | herbicidal effect (index), Barnyardgrass [8] | herbicidal effect (index), Green Foxtail [9] | herbicidal effect (index), Slender Amaranth [10] | herbicidal effect (index), Velvetleaf [11] |
| --- | --- | --- | --- | --- | --- | --- | --- | --- | --- | --- | --- |
| C[S+]([O-])CCCn1c(C(F)(F)F)ccc(C(=O)C2=C(O)CCCC2=O)c1=O (stereo not drawn) [I-70] | 5 (90% or more of herbicidal effect and crop phytotoxicity) | 5 (90% or more of herbicidal effect and crop phytotoxicity) | 5 (90% or more of herbicidal effect and crop phytotoxicity) | 5 (90% or more of herbicidal effect and crop phytotoxicity) | 5 (90% or more of herbicidal effect and crop phytotoxicity) | 5 (90% or more of herbicidal effect and crop phytotoxicity) | 5 (90% or more of herbicidal effect and crop phytotoxicity) | 5 (90% or more of herbicidal effect and crop phytotoxicity) | 5 (90% or more of herbicidal effect and crop phytotoxicity) | 5 (90% or more of herbicidal effect and crop phytotoxicity) | 5 (90% or more of herbicidal effect and crop phytotoxicity) |
| CS(=O)(=O)CCCn1c(C(F)(F)F)ccc(C(=O)C2=C(O)CCCC2=O)c1=O [I-71] | 5 (90% or more of herbicidal effect and crop phytotoxicity) | 5 (90% or more of herbicidal effect and crop phytotoxicity) | 5 (90% or more of herbicidal effect and crop phytotoxicity) | 5 (90% or more of herbicidal effect and crop phytotoxicity) | 5 (90% or more of herbicidal effect and crop phytotoxicity) | 5 (90% or more of herbicidal effect and crop phytotoxicity) | 5 (90% or more of herbicidal effect and crop phytotoxicity) | 5 (90% or more of herbicidal effect and crop phytotoxicity) | 5 (90% or more of herbicidal effect and crop phytotoxicity) | 5 (90% or more of herbicidal effect and crop phytotoxicity) | 5 (90% or more of herbicidal effect and crop phytotoxicity) |
| O=C1CCCC(O)=C1C(=O)c1ccc(C(F)(F)F)n(-c2ccccc2)c1=O [I-72, 2-[1,2-dihydro-2-oxo-1-phenyl-6-(trifluoromethyl)pyridine-3-carbonyl]-3-hydroxy-2-cyclohexen-1-one] | 5 (90% or more of herbicidal effect and crop phytotoxicity) | 5 (90% or more of herbicidal effect and crop phytotoxicity) | 5 (90% or more of herbicidal effect and crop phytotoxicity) | 5 (90% or more of herbicidal effect and crop phytotoxicity) | 5 (90% or more of herbicidal effect and crop phytotoxicity) | 5 (90% or more of herbicidal effect and crop phytotoxicity) | 5 (90% or more of herbicidal effect and crop phytotoxicity) | 5 (90% or more of herbicidal effect and crop phytotoxicity) | 5 (90% or more of herbicidal effect and crop phytotoxicity) | 5 (90% or more of herbicidal effect and crop phytotoxicity) | 5 (90% or more of herbicidal effect and crop phytotoxicity) |
